# Test results reported in US9078838B2, “Cosmetic or dermatological compositions comprising a mixture of essential oils, and its uses thereof, particularly for the care of sensitive or sensitized skin” (LVMH Recherche, priority 2008, dated 2015).
# No end group written: not given here.
# System: explants of human skin
# Experiment: Release of histamine induced by CRH in explants of human skin (ex vivo cutaneous stress model, ELISA)
# Format: cell-based
# Protocol: To evaluate the activity of the combination of the invention on the release of histamine, which is an allergy mediator, a cutaneous stress model is reproduced ex vivo by applying a solution of CRH in the survival medium of explants of human skin.
# Three explants of skin with a diameter of 8 mm are prepared from healthy human skin originating from surgical removal.
# They are placed in 24-well plates and left to stand in an appropriate medium (MCDB 153, insulin, CaCl2, gentamycin) for 24 hours.
# CRH (from Neosystem) is dissolved at a concentration of 231 μM in phosphate buffer (PBS) (pH 7.2).
# First of all a 5% by weight (50 mg/ml) solution is prepared for each of the essential oils, in ethanol for the helichrysum oil and in DMSO for the cannabis oil.
# The 5% by weight solutions are subsequently diluted at the time of use to 1/1000th in the survival medium of the explants, to give the different treatment solutions.
# The combination of cannabis and helichrysum essential oils is tested in the form of a treatment solution containing these two essential oils, each at a concentration of 0.005% by weight (50:50 ratio). Each essential oil is likewise tested on its own in the form of a 0.005% by weight treatment solution.
# In each well the explant is at the surface of the survival medium. […]
substance,measurement,setting,value
"corticotropin-releasing hormone (SEEPPISLDLTFHLLREVLEMARAEQLAQQAHSNRKLMEII; not fully specified (C-terminus); ends and bridges not checked; UniProt P06850 154-194, looked up) [CRH, CRH (from Neosystem), stimulus of histamine release, positive control]",Stimulation of the release of histamine by skin explants (in words),CRH on skin explants maintained in survival mode,induces significant stimulation of the release of histamine
same,Histamine,"stimulated with CRH 7.7 μM for 2 hours, no essential oil pretreatment (positive control), solvent control 15.3 +/− 1.0",21.8 ± 1.4 ng/mL
